Here are results for 31 compounds from patent publication US8058475B2, “Substituted cyclohexylmethyl compounds” (Gruenenthal GmbH, priority 2005, dated 2011).

pKi: −log10 of the molar value. Where two headings read alike, the source gives them in different places.

The target of experiment [1] is T1, Noradrenaline (NA) reuptake (Rattus norvegicus, UniProt Q63380).
T1 construct: synaptosomes are freshly isolated from areas of rat brain; from tissue; host or cells: rat hypothalamus synaptosomes (P2 fraction)
In words: Noradrenaline (NA) reuptake inhibition in rat brain synaptosomes (hypothalamus, P2 fraction). The class given is biochemical. The settings on record: read-out: NA reuptake, % inhibition [10 μM]. From the text: Noradrenaline (NA) and Serotonin (5HT) Reuptake Inhibition
In order to be able to carry out these studies in vitro, synaptosomes are freshly isolated from areas of rat brain. A so-called “P2” fraction prepared by the method of Gray and Whittaker (E. G. Gray and V. P. Whittaker (1962) J. Anat. 76, 79-88) is used in each case. For the NA uptake, these vesicular particles are isolated from the hypothalamus of male rat brains.
A detailed description of the method will be found in the literature (M. Ch. Frink, H. H. Hennies, W. Englberger, M. Haurand and B. Wilffert (1996) Arzneim.-Forsch./Drug Res. 46 (III), 11, 1029-1036).

A further experiment addresses human μ-opiate receptor (Homo sapiens, UniProt P35372). In words: Affinity for the human μ-opiate receptor ([3H]-naloxone displacement, SPA, CHO-K1 membrane preparation). The settings on record: for inhibition at 1 µM: read-out: μ-Opioid receptor, % inhibition [1 μM]; for pKi: read-out: μ-Opioid receptor, Ki. The class given is binding.
Where [2] appears, read: 1 μM test substance, inhibition of specific [3H]-naloxone binding.

Chain of human μ-opiate receptor (P35372 whole entry): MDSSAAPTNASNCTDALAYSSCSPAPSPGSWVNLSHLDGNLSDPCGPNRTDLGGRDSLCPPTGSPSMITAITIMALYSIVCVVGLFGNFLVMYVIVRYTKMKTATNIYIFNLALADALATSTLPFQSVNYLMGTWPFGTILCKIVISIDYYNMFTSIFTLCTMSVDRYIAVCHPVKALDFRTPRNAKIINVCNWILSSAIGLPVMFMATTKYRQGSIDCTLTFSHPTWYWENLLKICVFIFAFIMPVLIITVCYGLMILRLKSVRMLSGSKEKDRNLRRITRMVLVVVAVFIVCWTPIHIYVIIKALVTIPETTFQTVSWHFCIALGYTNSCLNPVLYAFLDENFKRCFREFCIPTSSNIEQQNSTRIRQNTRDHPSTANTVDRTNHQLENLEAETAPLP
T1 sequence (Q63380 1-617): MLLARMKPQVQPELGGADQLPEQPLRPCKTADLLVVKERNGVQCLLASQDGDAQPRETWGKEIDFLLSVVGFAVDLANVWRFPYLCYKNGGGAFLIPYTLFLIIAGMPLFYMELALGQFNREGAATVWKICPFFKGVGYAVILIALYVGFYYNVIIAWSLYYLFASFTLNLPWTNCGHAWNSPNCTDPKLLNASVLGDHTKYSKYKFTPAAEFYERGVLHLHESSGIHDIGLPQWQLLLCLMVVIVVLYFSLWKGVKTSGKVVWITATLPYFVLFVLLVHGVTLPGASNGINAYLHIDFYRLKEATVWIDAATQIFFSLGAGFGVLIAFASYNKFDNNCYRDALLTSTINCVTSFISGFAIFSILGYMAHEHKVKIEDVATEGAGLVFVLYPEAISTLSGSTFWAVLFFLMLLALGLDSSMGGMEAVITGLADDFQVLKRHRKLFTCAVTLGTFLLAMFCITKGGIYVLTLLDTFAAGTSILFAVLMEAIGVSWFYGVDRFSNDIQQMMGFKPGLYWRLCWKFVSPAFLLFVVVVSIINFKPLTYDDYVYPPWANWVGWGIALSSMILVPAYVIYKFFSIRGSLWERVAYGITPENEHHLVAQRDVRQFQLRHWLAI

By inhibition is commonly meant the change of the read-out against control, counted positive when it falls. For the compound `CN(C)C(c1cccc(F)c1)C1CCC(NC(=O)c2nc(CC3CC3)no2)CC1` (stereo not drawn) [compound 500, 3-cyclopropylmethyl-[1,2,4]oxadiazole-5-carboxylic acid {4-[dimethylamino-(3-fluoro-phenyl)-methyl]-cyclohexyl}-amide], in experiment [1], the inhibition at 10 µM came to 101%.

Usually pKi stands for the negative decadic logarithm of the Ki, by convention in mol/L. Consider `COc1ccc(C(=O)NC2CCC(C(c3ccccc3)N(C)C)CC2)c(OC)c1` (stereo not drawn) [compound 216, N-[4-(dimethylamino-phenyl-methyl)-cyclohexyl]-2,4-dimethoxy-benzamide], for which, at human μ-opiate receptor, the inhibition at 1 µM was determined as 90% and the pKi is 7.25.

Turning to `COc1cccc(CC(=O)NCCC2CCC(C(c3cccs3)N(C)C)CC2)c1` (stereo not drawn) [compound 454, N-{2-[4-(dimethylamino-thiophen-2-yl-methyl)-cyclohexyl]-ethyl}-2-(3-methoxy-phenyl)-acetamide], at human μ-opiate receptor, the inhibition at 1 µM is 87% and the pKi was 7.29.

With `CC(=O)N(Cc1ccc(F)cc1)C1CCC(C(c2ccccc2)N(C)C)CC1` (stereo not drawn) [compound 179, N-(4-((dimethylamino)(phenyl)methyl)cyclohexyl)-N-(4-fluorobenzyl)acetamide], at human μ-opiate receptor, the inhibition at 1 µM is 99% and the pKi is 8.52.

In the case of `CN(C)C(c1ccccc1)C1CCC(CCNC(=O)c2ccc3snnc3c2)CC1` (stereo not drawn) [compound 472, benzo[1,2,3]thiadiazole-5-carboxylic acid {2-[4-(dimethylamino-phenyl-methyl)-cyclohexyl]-ethyl}-amide], the inhibition at 1 µM on human μ-opiate receptor was 85%.

As for `CN(C)C(c1ccccc1)C1CCC(CCNC(=O)c2ccc(F)c(F)c2)CC1` (stereo not drawn) [compound 444, N-{2-[4-(dimethylamino-phenyl-methyl)-cyclohexyl]-ethyl}-3,4-difluoro-benzamide], on human μ-opiate receptor, the inhibition at 1 µM turned out to be 101% and the pKi was 7.96.

Turning to `CN(C)C(c1ccccc1)C1CCC(CCNC(=O)c2cccc(Cl)c2)CC1` (single isomer, unassigned) [compound 397, 3-chloro-N-{2-[4-(dimethylamino-phenyl-methyl)-cyclohexyl]-ethyl}-benzamide], on human μ-opiate receptor, the inhibition at 1 µM amounted to 97% and the pKi was 8.14.

As for `CN(C)C(c1cccc(F)c1)C1CCC(CCNC(=O)c2ccccc2F)CC1` (stereo not drawn) [compound 411, N-(2-{4-[dimethylamino-(3-fluoro-phenyl)-methyl]-cyclohexyl}-ethyl)-2-fluoro-benzamide], at human μ-opiate receptor, the inhibition at 1 µM stood at 99% and the pKi was 7.96.

Take `CN(C)C(c1cccc(F)c1)C1CCC(NC(=O)c2cc(F)cc(F)c2)CC1` (stereo not drawn) [compound 204, N-{4-[dimethylamino-(3-fluoro-phenyl)-methyl]-cyclohexyl}-3,5-difluoro-benzamide]: on human μ-opiate receptor, the inhibition at 1 µM was determined as 94% and the pKi was 7.74.

For the compound `Cc1cccc(C(=O)NCCC2CCC(C(c3cccs3)N(C)C)CC2)c1` (stereo not drawn) [compound 430, N-{2-[4-(dimethylamino-thiophen-2-yl-methyl)-cyclohexyl]-ethyl}-3-methyl-benzamide], at human μ-opiate receptor, the inhibition at 1 µM stood at 101% and the pKi was 8.36.

For the compound `COc1c(C(=O)NCCC2CCC(C(c3ccc(F)cc3)N(C)C)CC2)csc1Cl` (stereo not drawn) [compound 475, 5-chloro-4-methoxy-thiophene-3-carboxylic acid (2-{4-[dimethylamino-(4-fluoro-phenyl)-methyl]-cyclohexyl}-ethyl)-amide], on human μ-opiate receptor, the inhibition at 1 µM amounted to 97% and the pKi was 8.16.

As to `CN(C)C(c1ccc(Cl)cc1)C1CCC(O)(c2cccc(F)c2)CC1` (stereo not drawn) [compound 171, 4-[(4-chloro-phenyl)-dimethylamino-methyl]-1-(3-fluoro-phenyl)-cyclohexanol], the inhibition at 1 µM at human μ-opiate receptor (setting [2]) turned out to be 67%.

On to `CCCCC1(O)CCC(C(c2ccc(Cl)cc2)N(C)C)CC1` (stereo not drawn) [compound 167, 1-butyl-4-[(4-chloro-phenyl)-dimethylamino-methyl]-cyclohexanol], for which the inhibition at 1 µM on human μ-opiate receptor (setting [2]) is 58%.

On to `COc1ccccc1C(=O)NCCC1CCC(C(c2ccc(F)cc2)N(C)C)CC1` (stereo not drawn) [compound 432, N-(2-{4-[dimethylamino-(4-fluoro-phenyl)-methyl]-cyclohexyl}-ethyl)-2-methoxy-benzamide], for which, at human μ-opiate receptor, the inhibition at 1 µM worked out at 95% and the pKi is 7.74.

Take `CN(C)C(c1cccs1)C1CCC(CNC(=O)Cc2cccs2)CC1` (stereo not drawn) [compound 291, N-[4-(dimethylamino-thiophen-2-yl-methyl)-cyclohexylmethyl]-2-thiophen-2-yl-acetamide]: the inhibition at 1 µM on human μ-opiate receptor came out at 102%.

In the case of `CN(C)C(c1cccc(F)c1)C1CCC(CNC(=O)c2csc(-c3ccccc3)n2)CC1` (stereo not drawn) [compound 365, 2-phenyl-thiazole-4-carboxylic acid {4-[dimethylamino-(3-fluoro-phenyl)-methyl]-cyclohexylmethyl}-amide], at human μ-opiate receptor, the inhibition at 1 µM is 85% and the pKi is 7.13.

As for `Cc1ccc(C(=O)NC2CCC(C(c3cccs3)N(C)C)CC2)cc1` (stereo not drawn) [compound 198, N-[4-(dimethylamino-thiophen-2-yl-methyl)-cyclohexyl]-4-methyl-benzamide], on human μ-opiate receptor, the inhibition at 1 µM was 95% and the pKi was 7.82.

As to `CN(C)C(c1ccccc1)C1CCC(NC(=O)COCc2ccccc2)CC1` (stereo not drawn) [compound 254, 2-benzyloxy-N-[4-(dimethylamino-phenyl-methyl)-cyclohexyl]-acetamide], on human μ-opiate receptor, the inhibition at 1 µM amounted to 80% and the pKi was 7.25.

In the case of `CCSc1ncccc1C(=O)NCC1CCC(C(c2cccc(F)c2)N(C)C)CC1` (stereo not drawn) [compound 388, N-{4-[dimethylamino-(3-fluoro-phenyl)-methyl]-cyclohexylmethyl}-2-ethylsulfanyl-nicotinamide], at human μ-opiate receptor, the inhibition at 1 µM turned out to be 81% and the pKi was 7.44.

On to `CN(C)C(c1cccs1)C1CCC(NC(=O)c2ccc(F)c(C(F)(F)F)c2)CC1` (stereo not drawn) [compound 192, N-[4-(dimethylamino-thiophen-2-yl-methyl)-cyclohexyl]-4-fluoro-3-trifluoromethyl-benzamide], for which, at human μ-opiate receptor, the inhibition at 1 µM turned out to be 98% and the pKi was 7.74.

On to `CN(C)C(c1cccc(F)c1)C1CCC(NC(=O)Cc2ccccc2)CC1` (stereo not drawn) [compound 240, N-{4-[dimethylamino-(3-fluoro-phenyl)-methyl]-cyclohexyl}-2-phenyl-acetamide], for which, on human μ-opiate receptor, the inhibition at 1 µM worked out at 82% and the pKi is 7.29.

On to `Cc1cccc(C(=O)NCCC2CCC(C(c3cccc(F)c3)N(C)C)CC2)c1` (stereo not drawn) [compound 412, N-(2-{4-[dimethylamino-(3-fluoro-phenyl)-methyl]-cyclohexyl}-ethyl)-3-methyl-benzamide], for which, at human μ-opiate receptor, the inhibition at 1 µM worked out at 93% and the pKi was 7.49.

Regarding `CN(C)C(c1cccc(F)c1)C1CCC(CNC(=O)Cc2ccccc2)CC1` (single isomer, unassigned) [compound 319, N-{4-[dimethylamino-(3-fluoro-phenyl)-methyl]-cyclohexylmethyl}-2-phenyl-acetamide], on human μ-opiate receptor, the inhibition at 1 µM was found to be 95% and the pKi is 7.82.

As for `CN(C)C(c1ccccc1)C1CCC(NC(=O)c2c(F)ccc(F)c2F)CC1` (stereo not drawn) [compound 244, N-[4-(dimethylamino-phenyl-methyl)-cyclohexyl]-2,3,6-trifluoro-benzamide], on human μ-opiate receptor, the inhibition at 1 µM was 82% and the pKi was 7.52.

Take `CN(C)C(c1cccs1)C1CCC(CNC(=O)c2cccc(Br)c2)CC1` (stereo not drawn) [compound 307, 3-bromo-N-[4-(dimethylamino-thiophen-2-yl-methyl)-cyclohexylmethyl]-benzamide]: on human μ-opiate receptor, the inhibition at 1 µM is 98% and the pKi is 8.21.

For the compound `CN(C)C(c1ccc(F)cc1)C1CCC(CCNC(=O)c2cccc(Cl)c2)CC1` (single isomer, unassigned) [compound 423, 3-chloro-N-(2-{4-[dimethylamino-(4-fluoro-phenyl)-methyl]-cyclohexyl}-ethyl)-benzamide], at human μ-opiate receptor, the “μ-Opioid receptor, % inhibition [1 μM]” value was 83% and the pKi was 7.82.

Regarding `CN(C)C(c1ccccc1)C1CCC(CCNC(=O)Cc2ccccc2)CC1` (stereo not drawn) [compound 451, N-{2-[4-(dimethylamino-phenyl-methyl)-cyclohexyl]-ethyl}-2-phenyl-acetamide], at human μ-opiate receptor, the inhibition at 1 µM stood at 92% and the pKi is 7.62.

`CN(C)C(c1ccccc1)C1CCC(CNC(=O)c2cccc(Br)c2)CC1` (stereo not drawn) [compound 358, 3-bromo-N-[4-(dimethylamino-phenyl-methyl)-cyclohexylmethyl]-benzamide]: at human μ-opiate receptor, the inhibition at 1 µM is 86% and the pKi was 7.96.

For the compound `CN(C)C(CCc1ccccc1)C1CCC(NC(=O)c2ccc(F)cc2)CC1` (stereo not drawn) [compound 258, N-[4-(1-dimethylamino-3-phenyl-propyl)-cyclohexyl]-4-fluoro-benzamide], at human μ-opiate receptor, the inhibition at 1 µM came out at 79% and the pKi is 7.17.

On to `CN(C)C(c1cccc(F)c1)C1CCC(NC(=O)c2ccc(F)c(Cl)c2)CC1` (stereo not drawn) [compound 269, 3-chloro-N-{4-[dimethylamino-(3-fluoro-phenyl)-methyl]-cyclohexyl}-4-fluoro-benzamide], for which, on human μ-opiate receptor, the inhibition at 1 µM stood at 75% and the pKi was 7.33.

Take `Cc1cc(C(=O)NC2CCC(C(c3ccccc3)N(C)C)CC2)n(C(C)(C)C)n1` (stereo not drawn) [compound 223, 2-tert-butyl-5-methyl-2H-pyrazole-3-carboxylic acid [4-(dimethylamino-phenyl-methyl)-cyclohexyl]-amide]: at human μ-opiate receptor, the inhibition at 1 µM is 88% and the pKi is 7.70.
